Results: PMC9561414 (2022)
Blank lines part the entries; values can stand above or below the molecule they belong to.

How the values were obtained:
Experiment in all cases: RelE cleavage translation initiation assay (PAGE)
[1] = test system: Pae Gdm WT (RNA, riboswitch) GGUUUCAGCCGGAAGCGGGACGACCCGUUUUCCCUCUUUCAUUGCGCGGGGACGACCCUGCAGAGAGGCUGAAAAUGUAGUGGAUCUAUCUCUUGCUCGUA; conditions: 30 mM K+ (KCl), 7 mM Mg2+, 70 mM NH4Cl, 50 mM HEPES-KOH pH 7.5, 37 °C, 70S ribosomes, IFs
[2] = test system: Pae Gdm OFF (RNA, riboswitch) GGUUUCAGCCGGAAGCGGGAAAACCCGUUUUCCCUCUUUCAUUGCGCGGGGACGACCCUGCAGAGAGGCUGAAAAUGUAGUGGAUCUAUCUCUUGCUCGUA; conditions: 30 mM K+ (KCl), 7 mM Mg2+, 70 mM NH4Cl; 50 mM HEPES-KOH pH 7.5, 37 °C, 70S ribosomes, IFs; no response up to 25 mM guanidine
[3] = test system: Vvu add U61C (RNA, riboswitch) GCUUCAUAUAAUCCUAAUGAUAUGGUUUGGGAGUUUCUACCAAGAGCCUUAAACUCUUGACUAUGAAGUCUGUCGCUUUAUCCGAAAUUUUAUAAAGAGAAGACUCAUGUAGAAUUACUUUGACCUGCCG; conditions: 30 mM K+ (KCl), 7 mM Mg2+, 70 mM NH4Cl, 50 mM HEPES-KOH pH 7.5, 37 °C, 70S ribosomes, IFs
[4] = test system: Vvu add (WT) (RNA, riboswitch) GCUUCAUAUAAUCCUAAUGAUAUGGUUUGGGAGUUUCUACCAAGAGCCUUAAACUCUUGAUUAUGAAGUCUGUCGCUUUAUCCGAAAUUUUAUAAAGAGAAGACUCAUGUAGAAUUACUUUGACCUGCCG; conditions: 30 mM K+ (KCl), 7 mM Mg2+, 70 mM NH4Cl; 50 mM HEPES-KOH pH 7.5, 37 °C, 70S ribosomes, IFs; apparent

K1/2 ([1]; apparent, Hill 1.5 ± 0.2): 2.2 ± 0.2 mM
binding [2]: no
Compound: N=C(N)N

binding ([1]; no modulation at 50 mM urea): no
Compound: NC(N)=O

K1/2 ([3]; apparent): 87 ± 3 nM
Compound: Nc1nc2[nH]cnc2c(=O)[nH]1

K1/2 [4]: 1.4 ± 0.7 µM
binding ([3]; no response up to 500 μM adenine): no
Compound: Nc1ncnc2[nH]cnc12
